# In patent US6620828B2, “Thiazole compounds and pharmaceutical compositions for inhibiting protein kinases and methods for their use” (Agouron Pharmaceuticals, Inc., priority 1999, dated 2003):
# pIC50, pKi: −log10 of the molar value.
# Key:
# [1] = test system: lung cancer cells (line MV522); assay: Cancer cell proliferation (MV522) assay; format: cell-based; settings: MV522, Table 1
# Description: Cancer Cell Proliferation (MV522) Assay
# The protocol for assessing cellular proliferation in cancer cells is similar to that used for assessments in HUVEC cells. Two thousand lung cancer cells (line MV522, acquired from American Tissue Cultural Collection) were seeded in growth media (RPMI1640 medium supplemented with 2 mM glutamine and 10% FBS). Cells are allowed to attach for 1 day prior to addition of test agents and/or vehicles. Cells are treated simultaneously with the same test agents used in the HUVEC assay. Cellular proliferation is quantified by MTT dye reduction assay 72 hours after exposure to test agents. The total length of the assay is 4 days vs. 5 for HUVEC cells because MV522 cells are not exposed to starvation medium.
# [2] = biological target: T1, phosphorylated VEGF-R2Δ50 (FLVK-P) (Homo sapiens, UniProt P35968, DEL940-989/E990V); assay: VEGF-R2 coupled spectrophotometric (FLVK-P) assay; format: biochemical; settings: Table 1; spectrophotometric assay
# T1 construct: VEGF-R2Δ50 contains residues 806-939 and 990-1171; made in house; host or cells: baculovirus/insect cells
# T1 sequence (P35968 with tags, fused parts or gaps DEL940-989/E990V limits assumed): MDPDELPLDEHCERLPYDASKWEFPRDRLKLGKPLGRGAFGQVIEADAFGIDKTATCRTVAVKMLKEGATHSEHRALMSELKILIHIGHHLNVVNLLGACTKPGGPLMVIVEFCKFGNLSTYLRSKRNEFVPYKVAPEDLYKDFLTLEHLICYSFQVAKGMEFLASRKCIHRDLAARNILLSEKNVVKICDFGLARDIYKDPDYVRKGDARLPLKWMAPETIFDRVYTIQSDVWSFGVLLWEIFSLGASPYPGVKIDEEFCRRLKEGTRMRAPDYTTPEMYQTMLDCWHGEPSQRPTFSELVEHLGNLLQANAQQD
# In short: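 Baculovirus-expressed human VEGF-R2Δ50 (residues 806-939/990-1171, E990V) was autophosphorylated with 3 mM ATP, 40 mM MgCl2 for 2 h at 4° C. ADP formation was coupled via PK/LDH to NADH oxidation, read at 340 nm, with 5.1 mM poly(E4Y1), 1 mM ATP, 25 mM MgCl2, Hepes pH 7.5. Ki came from activity across compound concentrations.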
# [3] = test system: human umbilical vein endothelial cells (HUVEC); assay: HUVEC proliferation assay; format: cell-based; settings: Homo sapiens, HUVEC, Table 1
# In short: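 Readout was MTT dye reduction (A595) after 72 h of stimulation with VEGF at 6 ng/ml final. Compound, in 0.1% DMSO final, was added 1 h before VEGF to HUVEC starved 24 h in 1% FBS. % inhibition was scaled between VEGF-alone and unstimulated wells; IC50 was fitted from triplicate dose curves.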
SMILES,pIC50 [1],pKi [2],pIC50 [3]
"COc1ccc(Nc2nc(N)c(-c3nc(-c4cccc(NC(=O)c5ccccc5)c4)cs3)s2)cc1OC [A(47), N-{3-[4′-Amino-2′-(3,4-dimethoxy-phenylamino)-[2,5′]bithiazolyl-4-yl]-phenyl}-benzamide]",< 5.00,8.10,6.59
"COc1cc(Nc2nc(N)c(-c3nc(-c4cccc(NC(=O)OC(C)(C)C)c4)no3)s2)cc(OC)c1OC [B(2), 3-(3-tert-Butyloxycarboxy-aminophenyl)-5-[2-[(3,4,5-trimethoxyphenyl)amino]-4-amino-5-thiazolyl]-1,2,4-oxadiazole]",5.44,7.78,< 6.15
"COc1cc(Nc2nc(N)c(-c3nc(-c4cccc(NS(C)(=O)=O)c4)cs3)s2)cc(OC)c1OC [D(3), N-{3-[4′-Amino-2′-(3,4,5-trimethoxy-phenylamino)-[2,5′]bithiazolyl-4-yl]-phenyl}-methanesulfonamide]",< 5.00,7.20,< 6.15
"Nc1nc(Nc2ccccc2)sc1-c1nc(-c2cccc(NC(=O)OCc3ccccc3)c2)cs1 [D(20), [3-(4′-Amino-2′-phenylamino-[2,5′]bithiazolyl-4-yl)-phenyl]-carbamic acid benzyl ester]",< 5.00,8.43,6.00
"COc1cc(Nc2nc(N)c(-c3nc(-c4cccc(NC(=O)O[C@H](C)c5ccccc5)c4)cs3)s2)cc(OC)c1OC [D(23), {3-[4′-Amino-2′-(3,4,5-trimethoxy-phenylamino)-[2,5′]bithiazolyl-4-yl]-phenyl}-carbamic acid 1-R-phenyl-ethyl ester]",< 5.00,6.82,6.89
"Nc1nc(Nc2ccc(S(N)(=O)=O)cc2)sc1-c1nc(-c2cccc(NC(=O)OCc3ccccc3)c2)cs1 [D(25), {3-[4′-Amino-2′-(4-sulfamoyl-phenylamino)-[2,5′]bithiazolyl-4-yl]-phenyl}-carbamic acid benzyl ester]",< 5.00,9.00,6.13
"COc1cc(Nc2nc(N)c(-c3nc(-c4cccc(NC(=O)c5cccc(C(C)C)c5)c4)cs3)s2)cc(OC)c1OC [D(27), N-{3-[4′-Amino-2′-(3,4,5-trimethoxy-phenylamino)-[2,5′]bithiazolyl-4-yl]-phenyl}-3-isopropyl-benzamide]",< 5.00,8.74,7.09
"COc1cc(Nc2nc(N)c(-c3nc(-c4cccc(NC(=O)c5cccc(Br)c5)c4)cs3)s2)cc(OC)c1OC [D(29), N-{3-[4′-Amino-2′-(3,4,5-trimethoxy-phenylamino)-[2,5′]bithiazolyl-4-yl]-phenyl}-3-bromo-benzamide]",< 5.00,8.85,7.49
"COc1cc(Nc2nc(N)c(-c3nc(-c4cccc(NC(=O)c5ccc(Cl)c(C)c5)c4)cs3)s2)cc(OC)c1OC [D(30), N-{3-[4′-Amino-2′-(3,4,5-trimethoxy-phenylamino)-[2,5′]bithiazolyl-4-yl]-phenyl}-4-chloro-3-methyl-benzamide]",< 5.00,8.54,7.32
"COc1cc(C(=O)Nc2cccc(-c3csc(-c4sc(Nc5cc(OC)c(OC)c(OC)c5)nc4N)n3)c2)ccc1C [D(32), N-{3-[4′-Amino-2′-(3,4,5-trimethoxy-phenylamino)-[2,5′]bithiazolyl-4-yl]-phenyl}-3-methoxy-4-methyl-benzamide]",< 5.00,8.41,7.23
"COc1cc(Nc2nc(N)c(-c3nc(-c4cccc(NC(=O)c5ccc(C)s5)c4)cs3)s2)cc(OC)c1OC [D(34), 5-Methyl-thiophene-2-carboxylic acid {3-[4′-amino-2′-(3,4,5-trimethoxy-phenylamino)-[2,5′]bithiazolyl-4-yl]-phenyl}-amide]",5.05,9.07,7.05
"COc1cc(Nc2nc(N)c(-c3nc(-c4cccc(NC(C)=O)c4)no3)s2)cc(OC)c1OC [D(45), 3-[3-Acetamidophenyl]-5-[2-[(3,4,5-trimethoxyphenyl)amino]-4-amino-5-thiazolyl]-1,2,4-oxadiazole]",6.19,–,6.63
